{"source": "ChEMBL document CHEMBL1137802", "about": "“Specific antioxidant activity of caffeoyl derivatives and other natural phenolic compounds: LDL protection against oxidation and decrease in the proinflammatory lysophosphatidylcholine production” (J Nat Prod, 2001)", "assay_type_in_all_cases": "functional, cell-free", "key": {"[1]": {"experiment": "Antioxidant activity against Cu2+-induced lipid peroxidation in human plasma LDL assessed as lysophosphatidylcholine formation at 10 umol/L preincubated for 1 hr before Cu2+ challenge measured after 120 mins"}, "[2]": {"experiment": "Antioxidant activity against Cu2+-induced lipid peroxidation in human plasma LDL assessed as vitamin E consumption at 5 umol/L preincubated for 1 hr before Cu2+ challenge measured after 60 mins"}, "[3]": {"experiment": "Antioxidant activity against Cu2+-induced lipid peroxidation in human plasma LDL assessed as lysophosphatidylcholine formation at 20 umol/L preincubated for 1 hr before Cu2+ challenge measured after 180 mins"}, "[4]": {"experiment": "Antioxidant activity against Cu2+-induced lipid peroxidation in human plasma LDL assessed as conjugated diene formation at 10 umol/L preincubated for 1 hr before Cu2+ challenge measured after 360 mins"}, "[5]": {"experiment": "Antioxidant activity against Cu2+-induced lipid peroxidation in human plasma LDL assessed as vitamin E consumption at 5 umol/L preincubated for 1 hr before Cu2+ challenge measured after 45 mins"}, "[6]": {"experiment": "Antioxidant activity against Cu2+-induced lipid peroxidation in human plasma LDL assessed as vitamin E consumption at 20 umol/L preincubated for 1 hr before Cu2+ challenge measured after 270 mins"}, "[7]": {"experiment": "Antioxidant activity against Cu2+-induced lipid peroxidation in human plasma LDL assessed as conjugated diene formation at 20 umol/L preincubated for 1 hr before Cu2+ challenge measured after 150 mins"}, "[8]": {"experiment": "Antioxidant activity against Cu2+-induced lipid peroxidation in human plasma LDL assessed as vitamin E consumption at 20 umol/L preincubated for 1 hr before Cu2+ challenge measured after 15 mins"}, "[9]": {"experiment": "Antioxidant activity against Cu2+-induced lipid peroxidation in human plasma LDL assessed as conjugated diene formation at 20 umol/L preincubated for 1 hr before Cu2+ challenge measured after 120 mins"}, "[10]": {"experiment": "Antioxidant activity against Cu2+-induced lipid peroxidation in human plasma LDL assessed as lysophosphatidylcholine formation at 20 umol/L preincubated for 1 hr before Cu2+ challenge measured after 150 mins"}, "[11]": {"experiment": "Antioxidant activity against Cu2+-induced lipid peroxidation in human plasma LDL assessed as conjugated diene formation at 20 umol/L preincubated for 1 hr before Cu2+ challenge measured after 270 mins"}, "[12]": {"experiment": "Antioxidant activity against Cu2+-induced lipid peroxidation in human plasma LDL assessed as vitamin E consumption at 20 umol/L preincubated for 1 hr before Cu2+ challenge measured after 120 mins"}, "[13]": {"experiment": "Antioxidant activity against Cu2+-induced lipid peroxidation in human plasma LDL assessed as vitamin E consumption at 20 umol/L preincubated for 1 hr before Cu2+ challenge measured after 60 mins"}, "[14]": {"experiment": "Antioxidant activity against Cu2+-induced lipid peroxidation in human plasma LDL assessed as vitamin E consumption at 20 umol/L preincubated for 1 hr before Cu2+ challenge measured after 45 mins"}, "[15]": {"experiment": "Antioxidant activity against Cu2+-induced lipid peroxidation in human plasma LDL assessed as vitamin E consumption at 5 umol/L preincubated for 1 hr before Cu2+ challenge measured after 210 mins"}, "[16]": {"experiment": "Antioxidant activity against Cu2+-induced lipid peroxidation in human plasma LDL assessed as conjugated diene formation at 5 umol/L preincubated for 1 hr before Cu2+ challenge measured after 210 mins"}, "[17]": {"experiment": "Antioxidant activity against Cu2+-induced lipid peroxidation in human plasma LDL assessed as lysophosphatidylcholine formation at 20 umol/L preincubated for 1 hr before Cu2+ challenge measured after 60 mins"}, "[18]": {"experiment": "Antioxidant activity against Cu2+-induced lipid peroxidation in human plasma LDL assessed as vitamin E consumption at 5 umol/L preincubated for 1 hr before Cu2+ challenge measured after 270 mins"}, "[19]": {"experiment": "Antioxidant activity against Cu2+-induced lipid peroxidation in human plasma LDL assessed as maximal compound concentration at 5 umol/L preincubated for 1 hr before Cu2+ challenge measured after 180 mins relative to compound present at 0 min"}, "[20]": {"experiment": "Antioxidant activity against Cu2+-induced lipid peroxidation in human plasma LDL assessed as lysophosphatidylcholine formation at 20 umol/L preincubated for 1 hr before Cu2+ challenge measured after 210 mins"}, "[21]": {"experiment": "Antioxidant activity against Cu2+-induced lipid peroxidation in human plasma LDL assessed as maximal compound concentration at 20 umol/L preincubated for 1 hr before Cu2+ challenge measured after 210 mins relative to compound present at 0 min"}, "[22]": {"experiment": "Antioxidant activity against Cu2+-induced lipid peroxidation in human plasma LDL assessed as vitamin E consumption at 5 umol/L preincubated for 1 hr before Cu2+ challenge measured after 180 mins"}, "[23]": {"experiment": "Antioxidant activity against Cu2+-induced lipid peroxidation in human plasma LDL assessed as lysophosphatidylcholine formation at 5 umol/L preincubated for 1 hr before Cu2+ challenge measured after 90 mins"}, "[24]": {"experiment": "Antioxidant activity against Cu2+-induced lipid peroxidation in human plasma LDL assessed as conjugated diene formation at 5 umol/L preincubated for 1 hr before Cu2+ challenge measured after 180 mins"}, "[25]": {"experiment": "Antioxidant activity against Cu2+-induced lipid peroxidation in human plasma LDL assessed as maximal compound concentration at 10 umol/L preincubated for 1 hr before Cu2+ challenge measured after 270 mins relative to compound present at 0 min"}, "[26]": {"experiment": "Antioxidant activity against Cu2+-induced lipid peroxidation in human plasma LDL assessed as lysophosphatidylcholine formation at 5 umol/L preincubated for 1 hr before Cu2+ challenge measured after 210 mins"}, "[27]": {"experiment": "Antioxidant activity against Cu2+-induced lipid peroxidation in human plasma LDL assessed as maximal compound concentration at 5 umol/L preincubated for 1 hr before Cu2+ challenge measured after 15 mins relative to compound present at 0 min"}, "[28]": {"experiment": "Antioxidant activity against Cu2+-induced lipid peroxidation in human plasma LDL assessed as lysophosphatidylcholine formation at 10 umol/L preincubated for 1 hr before Cu2+ challenge measured after 90 mins"}, "[29]": {"experiment": "Antioxidant activity against Cu2+-induced lipid peroxidation in human plasma LDL assessed as vitamin E consumption at 20 umol/L preincubated for 1 hr before Cu2+ challenge measured after 90 mins"}, "[30]": {"experiment": "Antioxidant activity against Cu2+-induced lipid peroxidation in human plasma LDL assessed as lysophosphatidylcholine formation at 20 umol/L preincubated for 1 hr before Cu2+ challenge measured after 90 mins"}, "[31]": {"experiment": "Antioxidant activity against Cu2+-induced lipid peroxidation in human plasma LDL preincubated for 1 hr before Cu2+ challenge"}, "[32]": {"experiment": "Antioxidant activity against Cu2+-induced lipid peroxidation in human plasma LDL assessed as maximal compound concentration at 20 umol/L preincubated for 1 hr before Cu2+ challenge measured after 60 mins relative to compound present at 0 min"}, "[33]": {"experiment": "Antioxidant activity against Cu2+-induced lipid peroxidation in human plasma LDL assessed as vitamin E consumption at 10 umol/L preincubated for 1 hr before Cu2+ challenge measured after 180 mins"}, "[34]": {"experiment": "Antioxidant activity against Cu2+-induced lipid peroxidation in human plasma LDL assessed as vitamin E consumption at 20 umol/L preincubated for 1 hr before Cu2+ challenge measured after 30 mins"}, "[35]": {"experiment": "Antioxidant activity against Cu2+-induced lipid peroxidation in human plasma LDL assessed as vitamin E consumption at 5 umol/L preincubated for 1 hr before Cu2+ challenge measured after 150 mins"}}, "data": [{"molecule": "CC(C)(Sc1cc(C(C)(C)C)c(O)c(C(C)(C)C)c1)Sc1cc(C(C)(C)C)c(O)c(C(C)(C)C)c1", "values": [{"measurement": "Activity", "setting": "[1]", "result": 1.3, "unit": "%"}, {"measurement": "Activity", "setting": "[2]", "result": 0, "unit": "%"}, {"measurement": "Activity", "setting": "[3]", "result": 1.5, "unit": "%"}, {"measurement": "Activity", "setting": "[4]", "result": 100, "unit": "%"}, {"measurement": "Activity", "setting": "[5]", "result": 7.5, "unit": "%"}, {"measurement": "Activity", "setting": "[6]", "result": 0, "unit": "%"}, {"measurement": "Activity", "setting": "[7]", "result": 1.1, "unit": "%"}, {"measurement": "Activity", "setting": "[8]", "result": 38.2, "unit": "%"}, {"measurement": "Activity", "setting": "[9]", "result": 0.2, "unit": "%"}, {"measurement": "Activity", "setting": "[10]", "result": 1.3, "unit": "%"}, {"measurement": "Activity", "setting": "[11]", "result": 2.6, "unit": "%"}, {"measurement": "Activity", "setting": "[12]", "result": 0, "unit": "%"}, {"measurement": "Activity", "setting": "[13]", "result": 5.5, "unit": "%"}, {"measurement": "Activity", "setting": "[14]", "result": 7.5, "unit": "%"}, {"measurement": "Activity", "setting": "[15]", "result": 0, "unit": "%"}, {"measurement": "Activity", "setting": "[16]", "result": 80.8, "unit": "%"}, {"measurement": "Activity", "setting": "[17]", "result": 1.2, "unit": "%"}, {"measurement": "Activity", "setting": "[18]", "result": 0, "unit": "%"}, {"measurement": "Activity", "setting": "[19]", "result": 45.3, "unit": "%"}, {"measurement": "Activity", "setting": "[20]", "result": 1.4, "unit": "%"}, {"measurement": "Activity", "setting": "[21]", "result": 38.3, "unit": "%"}, {"measurement": "Activity", "setting": "[22]", "result": 0, "unit": "%"}, {"measurement": "Activity", "setting": "[23]", "result": 4.1, "unit": "%"}, {"measurement": "Activity", "setting": "[24]", "result": 79.5, "unit": "%"}, {"measurement": "Activity", "setting": "[25]", "result": 15.8, "unit": "%"}, {"measurement": "Activity", "setting": "[26]", "result": 23.1, "unit": "%"}, {"measurement": "Activity", "setting": "[27]", "result": 96, "unit": "%"}, {"measurement": "Activity", "setting": "[28]", "result": 0, "unit": "%"}, {"measurement": "Activity", "setting": "[29]", "result": 0, "unit": "%"}, {"measurement": "Activity", "setting": "[30]", "result": 1.1, "unit": "%"}, {"measurement": "Activity", "setting": "[31]", "result": 5.8, "unit": "µM/L"}, {"measurement": "Activity", "setting": "[32]", "result": 51.7, "unit": "%"}, {"measurement": "Activity", "setting": "[33]", "result": 0, "unit": "%"}, {"measurement": "Activity", "setting": "[34]", "result": 19.9, "unit": "%"}, {"measurement": "Activity", "setting": "[35]", "result": 0, "unit": "%"}]}]}
